From US8765746B2 (Millennium Pharmaceuticals, Inc., priority 2010, dated 2014)

Experiments:
Format in all cases: biochemical
[1] = target: T1, PI3Kbeta (Homo sapiens, UniProt P42338); assay: Human PI3K beta enzyme assay (HTRF, as for PI3K alpha); settings: for inhibition at 1.11 µM: read-out: PI3Kbeta % inh; for IC50: read-out: IC50 (inhibit PI3Kbeta); for inhibition at 1.11 µM / PI3Kbeta % inh: at 1.11 μM
T1 construct: His (N); host or cells: SF9 insect cells (baculovirus)
Procedure, shortened: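 N-His p110β/δ co-expressed with untagged p85 in Sf9, p110γ alone. Enzyme 5.25 nM (β), 0.75 nM (δ), 5 nM (γ), with ATP 25 uM and di-C8 PI(4,5)P2 3.5 uM (added-solution levels), pH 7.00, 30 min RT. HTRF read-out: biotin-PIP3, GST-GRP-1 PH domain, Eu anti-GST, streptavidin-XL.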

[2] = target: T2, VPS34 (Homo sapiens, UniProt Q8NEB9); assay: Human VPS34 enzyme assay (Adapta Universal Kinase Assay); settings: for inhibition at 1.11 µM: 1 h, read-out: VPS34 % ihn; for VPS34 % ihn: at 1.11 μM
T2 construct: GST (N); host or cells: SF9 insect cells (baculovirus)
T2 sequence (Q8NEB9 whole entry): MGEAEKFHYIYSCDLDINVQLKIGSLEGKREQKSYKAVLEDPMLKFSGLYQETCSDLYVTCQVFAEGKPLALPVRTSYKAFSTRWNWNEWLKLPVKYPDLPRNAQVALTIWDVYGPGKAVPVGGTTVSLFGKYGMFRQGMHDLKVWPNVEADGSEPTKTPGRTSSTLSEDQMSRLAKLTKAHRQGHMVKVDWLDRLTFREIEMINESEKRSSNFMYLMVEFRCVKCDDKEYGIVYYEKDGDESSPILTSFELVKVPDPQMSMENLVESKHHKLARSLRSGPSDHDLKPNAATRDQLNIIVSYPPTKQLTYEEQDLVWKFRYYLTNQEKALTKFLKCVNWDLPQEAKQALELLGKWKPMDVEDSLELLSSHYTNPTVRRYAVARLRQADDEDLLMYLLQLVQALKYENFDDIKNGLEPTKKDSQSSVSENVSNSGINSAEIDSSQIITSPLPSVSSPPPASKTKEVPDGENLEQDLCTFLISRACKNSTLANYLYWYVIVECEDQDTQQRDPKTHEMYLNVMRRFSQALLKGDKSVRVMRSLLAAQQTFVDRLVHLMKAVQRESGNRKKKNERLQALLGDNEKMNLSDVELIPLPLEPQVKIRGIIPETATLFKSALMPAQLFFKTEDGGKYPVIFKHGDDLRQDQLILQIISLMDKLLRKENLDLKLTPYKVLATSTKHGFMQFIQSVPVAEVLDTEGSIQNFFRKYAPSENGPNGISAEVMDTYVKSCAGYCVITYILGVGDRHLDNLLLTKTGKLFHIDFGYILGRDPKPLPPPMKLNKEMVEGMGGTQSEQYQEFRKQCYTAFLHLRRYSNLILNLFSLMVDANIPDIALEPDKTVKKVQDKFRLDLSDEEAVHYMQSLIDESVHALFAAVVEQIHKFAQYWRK
Procedure: VPS34 (accession number GB:BC033004) is cloned into pDEST20-Thombin as N-terminal GST tagged fusion proteins using the Gateway system (Invitrogen, catalog#11804-013). The sequences are verified before recombinant protein expression using the Baculovirus Expression System with Gateway® Technology.
For expression VPS34 was infected at 1MOI in SF9 cells and harvested 72 hours post infection.
For purification, VPS34 is purified by Glutathione Sepharose 4 Fast Flow (GE Healthcare #17-5132-03) followed by HiTrap Q (GE Healthcare #17-1153-01).
3) VPS34 is assayed using Adapta™ Universal Kinase Assay Kit (Invitrogen).
4) Human VPS34 enzyme assay method
100 mL compounds in DMSO are added to wells of a 384 well microtitre plate (Greiner 780076). At room temperature: 5 ul VPS34 reaction buffer (Invitrogen Assay Buffer Q (diluted 1 in 5 with nanopure water) plus 2 mM DTT and 2 mM MnCl2) containing ATP (20 uM, Promega) and 200 uM PI-PS substrate (Invitrogen PV5122) is added followed immediately by 5 ul VPS34 reaction buffer (as above) containing VPS34 (5 nM, Millennium Protein Sciences Group) and the mixture is incubated with shaking at room temperature for 1 hour. Then 5 ul VPS34 stop-detect mix (as per Invitrogen Adapta Assay kit (PV5009) instructions (contains kinase quench buffer, TR-FRET buffer, Adapta Eu anti-ADP antibody and Alexa Fluor 647 ADP tracer)) is added to quench the reaction. The plates are then incubated for 30 minutes at room temperature with shaking and then read on a BMG PheraStar Plus reader.

[3] = target: T3, PI3Kgamma (Homo sapiens, UniProt P48736); assay: Human PI3K gamma enzyme assay (HTRF, as for PI3K alpha); settings: for inhibition at 1.11 µM: read-out: PI3Kgamma % inh; for PI3Kgamma % inh: at 1.11 μM
T3 construct: His (N); host or cells: SF9 insect cells (baculovirus)
Excerpt: (§1) The catalytic subunits of PI3Ks are cloned into either pDEST8(p110 alpha) or pDEST10(p110beta, p110delta, and p110gamma) as N-terminal His tagged fusion proteins using the Gateway system (Invitrogen, catalog#11804-010 for pDEST8 and 11806-015 for pDEST10). The sequences are verified before recombinant protein expression using the Baculovirus Expression System with Gateway® Technology. The accession numbers for the subunits are as follows:
(§2) The regulatory subunits of PI3Ks are cloned into pDEST8 as un-tagged protein using the Gateway system (Catalog#11804-010). The sequences are verified before recombinant protein expression using the Baculovirus Expression System with Gateway® Technology. The accession numbers for the subunits are as follows:
(§3) For expression of the p110 complexes, the p85 (MOI of 4) is co-infected with p110 alpha, beta, and delta respectively (1MOI) in SF9 cells and harvested at 60 hours post co-infection. P110 gamma was infected at 1 MOI and harvested at 60 hours post infection.
(§4) For purification, PI3Ks are purified by Ni-NTA Agarose (Qiagen #30250) followed by Mono Q 10/100 GL (Ge Healthcare #17-5167-01). VPS34 is purified by Glutathione Sepharose 4 Fast Flow (GE Healthcare #17-5132-03) followed by HiTrap Q (GE Healthcare #17-1153-01).
(§5) 0.5 uL compounds in DMSO are added to wells of a 384 well microtitre plate (Corning 3575). At room temperature: 10 ul PI3K reaction buffer (50 mM Hepes, 5 mM DTT, 150 mM NaCl, 10 mM beta-glycerophosphate, 10 mM MgCl2, 0.25 mM sodium cholate and 0.001% CHAPS, pH 7.00) containing ATP (25 uM, Promega) is added followed immediately by 10 ul PI3K reaction buffer containing di-C8 PI(4,5)P2 (3.5 uM, CellSignals) and PI3Kalpha (0.4875 nM, Millennium Protein Sciences Group) and the mixture is incubated with shaking at room temperature for 30 minutes. Then 5 ul PI3K stop mix (50 mM Hepes, 5 mM DTT, 150 mM NaCl, 0.01% Tween-20, 15 mM EDTA and 25 nM biotin-PI(3,4,5)P3 (Echelon) is added to quench the reaction followed immediately by addition of 5 ul HTRF detection mix (50 mM Hepes, 5 mM DTT, 150 mM NaCl, 0.01% Tween-20, 40 mM KF, 10 nM GST:GRP-1 PH domain (Millennium Protein Sciences Group), 15 nM Streptavidin-XL (CisBio) and 0.375 nM anti-GST Eu++ antibody (CisBio) at pH 7.00). The plates are then incubated for 1 hour at room temperature with shaking and then read on a BMG PheraStar Plus reader.
(§6) 2) Human PI3K beta, delta and gamma isoforms are tested using the procedure described for PI3K alpha above but with the following changes: PI3K beta (5.25 nM), PI3K delta (0.75 nM) and PI3K gamma (5 nM). All isoforms supplied by Millennium Protein Science Group.

[4] = target: T4, PI3Kdelta (Homo sapiens, UniProt O00329); assay: Human PI3K delta enzyme assay (HTRF, as for PI3K alpha); settings: for inhibition at 1.11 µM: read-out: PI3Kdelta % inh; for PI3Kdelta % inh: at 1.11 μM
T4 construct: His (N); host or cells: SF9 insect cells (baculovirus)
T4 sequence (O00329 whole entry): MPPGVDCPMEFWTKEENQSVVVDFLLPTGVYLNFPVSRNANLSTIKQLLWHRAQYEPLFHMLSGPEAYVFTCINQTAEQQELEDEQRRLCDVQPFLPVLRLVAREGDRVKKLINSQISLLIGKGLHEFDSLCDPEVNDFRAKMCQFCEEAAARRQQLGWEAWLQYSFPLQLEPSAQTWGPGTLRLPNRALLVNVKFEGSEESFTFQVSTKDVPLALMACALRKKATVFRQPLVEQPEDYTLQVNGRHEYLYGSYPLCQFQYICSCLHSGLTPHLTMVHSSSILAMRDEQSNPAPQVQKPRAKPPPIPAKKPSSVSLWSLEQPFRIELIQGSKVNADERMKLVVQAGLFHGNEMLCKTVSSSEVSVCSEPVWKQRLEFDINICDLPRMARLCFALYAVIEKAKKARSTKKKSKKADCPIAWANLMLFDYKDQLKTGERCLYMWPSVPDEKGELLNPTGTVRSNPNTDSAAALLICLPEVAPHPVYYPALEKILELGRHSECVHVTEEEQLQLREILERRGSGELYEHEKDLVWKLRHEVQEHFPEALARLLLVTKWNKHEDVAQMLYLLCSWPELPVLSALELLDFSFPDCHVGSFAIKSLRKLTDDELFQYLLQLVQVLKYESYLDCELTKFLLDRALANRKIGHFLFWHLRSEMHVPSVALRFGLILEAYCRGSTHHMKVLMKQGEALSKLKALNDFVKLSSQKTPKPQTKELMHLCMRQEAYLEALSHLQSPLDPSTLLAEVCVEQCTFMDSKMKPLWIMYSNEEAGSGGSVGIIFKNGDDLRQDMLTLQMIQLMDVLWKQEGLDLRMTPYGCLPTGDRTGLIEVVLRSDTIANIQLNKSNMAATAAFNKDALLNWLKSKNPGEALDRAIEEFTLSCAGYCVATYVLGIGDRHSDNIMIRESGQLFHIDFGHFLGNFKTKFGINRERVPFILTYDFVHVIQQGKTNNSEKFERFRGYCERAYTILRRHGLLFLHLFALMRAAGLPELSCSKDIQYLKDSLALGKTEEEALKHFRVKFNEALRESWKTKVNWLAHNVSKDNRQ
T4 sequence (P27986 whole entry partner): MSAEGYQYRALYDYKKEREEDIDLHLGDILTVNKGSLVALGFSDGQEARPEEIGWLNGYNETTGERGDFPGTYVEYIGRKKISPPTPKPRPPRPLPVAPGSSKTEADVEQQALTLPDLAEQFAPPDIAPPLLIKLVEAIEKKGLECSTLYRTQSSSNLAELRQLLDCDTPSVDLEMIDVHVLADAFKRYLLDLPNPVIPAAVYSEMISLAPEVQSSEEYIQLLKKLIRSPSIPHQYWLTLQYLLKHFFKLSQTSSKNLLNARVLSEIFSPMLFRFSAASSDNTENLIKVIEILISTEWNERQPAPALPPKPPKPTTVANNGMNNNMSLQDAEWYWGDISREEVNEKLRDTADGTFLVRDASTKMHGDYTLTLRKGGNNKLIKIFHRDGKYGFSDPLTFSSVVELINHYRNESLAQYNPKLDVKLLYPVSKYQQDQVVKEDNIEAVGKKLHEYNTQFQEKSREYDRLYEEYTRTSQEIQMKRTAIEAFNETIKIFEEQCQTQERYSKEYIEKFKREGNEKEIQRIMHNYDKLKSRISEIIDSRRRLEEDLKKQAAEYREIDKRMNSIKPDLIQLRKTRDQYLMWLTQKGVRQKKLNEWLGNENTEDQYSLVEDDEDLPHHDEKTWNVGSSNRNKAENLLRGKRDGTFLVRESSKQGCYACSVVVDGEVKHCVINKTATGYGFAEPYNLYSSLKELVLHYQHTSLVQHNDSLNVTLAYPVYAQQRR
Excerpt: as §1, §2, §3, §4, §5, §6

[5] = target: T5, PI3Kalpha (Homo sapiens, UniProt P42336); assay: Human PI3Kα enzyme assay (HTRF); settings: for inhibition at 1.11 µM: read-out: PI3Kalpha % inh; for PI3Kalpha % inh: at 1.11 μM
T5 construct: His (N); host or cells: SF9 insect cells (baculovirus)
T5 sequence (P42336 whole entry): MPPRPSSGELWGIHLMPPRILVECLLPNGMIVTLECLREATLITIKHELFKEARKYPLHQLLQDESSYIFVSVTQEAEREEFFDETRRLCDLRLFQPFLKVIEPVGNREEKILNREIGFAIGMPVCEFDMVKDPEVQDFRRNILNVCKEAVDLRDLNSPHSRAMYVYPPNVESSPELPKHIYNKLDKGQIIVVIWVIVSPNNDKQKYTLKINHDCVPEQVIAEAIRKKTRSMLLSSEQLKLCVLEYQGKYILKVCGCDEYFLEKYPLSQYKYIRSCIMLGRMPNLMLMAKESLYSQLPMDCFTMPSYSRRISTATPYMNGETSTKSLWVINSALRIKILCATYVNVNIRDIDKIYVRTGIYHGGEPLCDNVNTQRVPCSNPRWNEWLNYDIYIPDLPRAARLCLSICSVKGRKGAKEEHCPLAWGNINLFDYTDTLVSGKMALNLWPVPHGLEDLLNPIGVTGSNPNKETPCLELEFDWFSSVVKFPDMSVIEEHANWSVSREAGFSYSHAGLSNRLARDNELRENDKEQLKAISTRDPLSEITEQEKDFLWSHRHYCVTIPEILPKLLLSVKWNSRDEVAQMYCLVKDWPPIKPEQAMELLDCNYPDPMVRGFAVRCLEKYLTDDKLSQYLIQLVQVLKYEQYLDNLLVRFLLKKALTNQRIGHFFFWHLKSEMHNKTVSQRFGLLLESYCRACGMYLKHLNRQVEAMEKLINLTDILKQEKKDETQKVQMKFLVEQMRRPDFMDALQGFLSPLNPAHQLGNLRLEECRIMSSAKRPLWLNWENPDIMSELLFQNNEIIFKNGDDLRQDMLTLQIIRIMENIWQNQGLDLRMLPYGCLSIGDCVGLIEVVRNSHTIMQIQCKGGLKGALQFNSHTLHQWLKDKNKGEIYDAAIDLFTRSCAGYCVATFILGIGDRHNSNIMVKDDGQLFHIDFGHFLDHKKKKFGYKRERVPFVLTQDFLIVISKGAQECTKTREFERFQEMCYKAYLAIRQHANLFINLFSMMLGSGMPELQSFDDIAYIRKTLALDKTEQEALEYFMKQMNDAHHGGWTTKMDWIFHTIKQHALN
T5 sequence (P27986 whole entry partner): as the sequence (P27986 whole entry partner) above
Procedure, shortened: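 His-tagged p110α co-expressed with p85 in Sf9 cells was reacted for 30 min at room temperature in pH 7.00 Hepes buffer with 10 mM MgCl2. Addition solutions held 25 uM ATP, 3.5 uM di-C8 PI(4,5)P2 and 0.4875 nM enzyme. The reaction was quenched with EDTA/biotin-PIP3 and detected by HTRF (GST-GRP-1 PH domain, streptavidin-XL, Eu anti-GST) after 1 h.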

T1 sequence (P42338 whole entry): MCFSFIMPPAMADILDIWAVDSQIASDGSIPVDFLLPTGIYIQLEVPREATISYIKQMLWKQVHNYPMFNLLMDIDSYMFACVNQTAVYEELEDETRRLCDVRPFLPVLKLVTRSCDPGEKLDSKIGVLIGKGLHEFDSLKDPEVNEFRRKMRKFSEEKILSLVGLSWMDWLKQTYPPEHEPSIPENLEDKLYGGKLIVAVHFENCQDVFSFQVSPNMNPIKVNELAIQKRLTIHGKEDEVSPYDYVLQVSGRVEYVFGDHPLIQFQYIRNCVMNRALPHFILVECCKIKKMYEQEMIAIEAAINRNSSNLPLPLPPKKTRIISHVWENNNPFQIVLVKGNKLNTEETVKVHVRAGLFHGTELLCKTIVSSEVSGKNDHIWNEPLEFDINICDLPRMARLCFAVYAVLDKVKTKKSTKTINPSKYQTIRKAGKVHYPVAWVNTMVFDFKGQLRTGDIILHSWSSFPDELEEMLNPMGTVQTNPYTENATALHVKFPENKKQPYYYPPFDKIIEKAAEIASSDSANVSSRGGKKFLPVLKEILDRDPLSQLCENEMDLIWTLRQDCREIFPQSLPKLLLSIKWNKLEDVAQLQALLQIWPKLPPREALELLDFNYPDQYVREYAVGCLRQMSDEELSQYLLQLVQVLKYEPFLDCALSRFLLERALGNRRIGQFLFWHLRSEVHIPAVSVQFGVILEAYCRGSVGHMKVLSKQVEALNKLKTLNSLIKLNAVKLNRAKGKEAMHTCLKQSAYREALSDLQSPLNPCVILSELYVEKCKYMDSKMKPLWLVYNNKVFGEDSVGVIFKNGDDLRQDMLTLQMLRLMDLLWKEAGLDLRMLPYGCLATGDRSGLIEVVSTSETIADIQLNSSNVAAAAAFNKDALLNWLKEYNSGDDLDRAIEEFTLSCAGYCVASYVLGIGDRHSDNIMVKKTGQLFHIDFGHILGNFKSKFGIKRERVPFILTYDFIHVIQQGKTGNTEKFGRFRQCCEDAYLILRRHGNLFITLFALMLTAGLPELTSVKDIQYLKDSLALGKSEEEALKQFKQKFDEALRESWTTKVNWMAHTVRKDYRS
T1 sequence (P27986 whole entry partner): as the sequence (P27986 whole entry partner) above

| SMILES | inhibition at 1.11 µM [1] | IC50 [1] | inhibition at 1.11 µM [2] | inhibition at 1.11 µM [3] | inhibition at 1.11 µM [4] | inhibition at 1.11 µM [5] | PI3Kbeta % inh [1] | VPS34 % ihn [2] | PI3Kgamma % inh [3] | PI3Kdelta % inh [4] | PI3Kalpha % inh [5] |
| --- | --- | --- | --- | --- | --- | --- | --- | --- | --- | --- | --- |
| O=C1NCCC(c2ccc(Cl)cc2)c2cc(-c3ccncc3)sc21 (racemic) [Compound 8, 4-(4-chlorophenyl)-2-pyridin-4-yl-4,5,6,7-tetrahydro-8H-thieno[2,3-c]azepin-8-one] | 102% | < 100 nM | 2.55% | 21.9% | 59.2% | 2.05% |  |  |  |  |  |
| O=C1CCC(c2ccc(Cl)cc2)c2cc(-c3ccncc3)sc21 (racemic) [Compound 13, 4-(4-chlorophenyl)-2-pyridin-4-yl-5,6-dihydro-1-benzothiophen-7(4H)-one] | 102% | < 100 nM | 6.6% | 10.8% | 55.7% | 3.1% |  |  |  |  |  |
| O=S1(=O)NCC(O)(c2ccc(Cl)cc2)c2cc(-c3ccncc3)sc21 (racemic) [Compound 26, 4-(4-chlorophenyl)-6-pyridin-4-yl-3,4-dihydro-2H-thieno[3,2-e][1,2]thiazin-4-ol 1,1-dioxide] | 105% | < 100 nM | 1.2% | 11.7% | 37.9% | 6.6% |  |  |  |  |  |
| O=S1(=O)NCC(O)(c2ccc(Cl)cc2)c2cc(-c3ccncc3)sc21 (single isomer, unassigned) [Compound 2, 4-(4-chlorophenyl)-6-pyridin-4-yl-3,4-dihydro-2H-thieno[3,2-e][1,2]thiazin-4-ol 1,1-dioxide] |  | < 100 nM |  |  |  |  | 110.400% | 4.300% | 21.200% | 63.100% | 3.200% |
| O=S1(=O)NCC(O)(c2ccc(Cl)cc2)c2cc(-c3ccncc3)sc21 (single isomer, unassigned) [Compound 9, 4-(4-chlorophenyl)-6-pyridin-4-yl-3,4-dihydro-2H-thieno[3,2-e][1,2]thiazin-4-ol 1,1-dioxide] |  | 100 to 1000 nM |  |  |  | 3.6% | 67.200% | −2.200% | 3.300% | 41.900% |  |
| O=C1NCCC(c2ccc(Cl)cc2)c2cc(-c3ccncc3)sc21 (single isomer, unassigned) [Compound 21, 4-(4-chlorophenyl)-2-pyridin-4-yl-4,5,6,7-tetrahydro-8H-thieno[2,3-c]azepin-8-one] |  | < 100 nM | 9.1% |  |  | 6.07% | 111.967% |  | 24.700% | 79.150% |  |
| O=C1CCC(c2ccc(Cl)cc2)c2cc(-c3ccncc3)sc21 (single isomer, unassigned) [Compound 22, 4-(4-chlorophenyl)-2-pyridin-4-yl-5,6-dihydro-1-benzothiophen-7(4H)-one] |  | < 100 nM | 4.4% | 14.2% | 44.5% |  | 97.500% |  |  |  | 0.600% |

Results, then the compound that gave them:

| inhibition at 1.11 µM [1] | IC50 [1] | inhibition at 1.11 µM [2] | inhibition at 1.11 µM [3] | inhibition at 1.11 µM [4] | inhibition at 1.11 µM [5] | PI3Kbeta % inh [1] | VPS34 % ihn [2] | PI3Kgamma % inh [3] | PI3Kdelta % inh [4] | PI3Kalpha % inh [5] | SMILES |
| --- | --- | --- | --- | --- | --- | --- | --- | --- | --- | --- | --- |
| 63% |  | 9.51% | 5.03% | 54.6% | 19.7% |  |  |  |  |  | CC1(C)C(=O)c2sc(N3CCOCC3)cc2C1(C)c1ccc(Cl)cc1 (racemic) [Compound 118, 4-(4-chlorophenyl)-4,5,5-trimethyl-2-morpholino-4H-cyclopenta[b]thiophen-6(5H)-one] |
| 87.8% | 100 to 1000 nM | 1.4% | 4.6% | 20.9% | 6% |  |  |  |  |  | COC(=O)[C@@H]1C(=O)c2sc(-c3ccncc3)cc2[C@H]1c1ccc(Cl)cc1 (relative stereo) [Compound 29, trans-methyl 4-(4-chlorophenyl)-6-oxo-2-(pyridin-4-yl)-5,6-dihydro-4H-cyclopenta[b]thiophene-5-carboxylate] |
| 65.7% | 100 to 1000 nM | -2.5% |  |  | 10.8% |  |  |  |  |  | N#Cc1c(N2CCOCC2)sc2c1C(c1ccc(Cl)cc1)OC2=O (stereo not drawn) [Compound 3, 4-(4-chlorophenyl)-2-morpholin-4-yl-6-oxo-4,6-dihydrothieno[2,3-c]furan-3-carbonitrile] |
| 99.7% |  |  | 71.3% | 98.2% | 50.6% |  |  |  |  |  | N#Cc1c(N2CCOCC2)sc2c1C(c1ccc3ccccc3c1)NC2=O (stereo not drawn) [Compound 169] |
|  |  |  | 12.5% | 51.6% |  | 83.73% |  |  |  | 22.53% | O=C1N[C@@H](C(=O)NCCCO)[C@H](c2ccc(Cl)cc2)c2cc(N3CCOCC3)sc21 [Compound 170] |
| 112% |  |  | 43.8% | 112% | 66.9% |  |  |  |  |  | O=C1NCCC(c2ccc3ccccc3c2)c2cc(N3CCOCC3)sc21 (stereo not drawn) [Compound 175] |
|  |  |  | 60.1% | 108% |  | 105.20% |  |  |  | 28.06% | O=C1NCC(c2ccc(Cl)c(Cl)c2)c2cc(N3CCOCC3)sc21 (stereo not drawn) [Compound 176, 4-(3,4-dichlorophenyl)-2-morpholino-5,6-dihydrothieno[2,3-c]pyridin-7(4H)-one] |
| 123% |  |  | 35.8% | 101% | 57.5% |  |  |  |  |  | Cc1cc(C2CNC(=O)c3sc(N4CCOCC4)c(C#N)c32)ccc1Cl (stereo not drawn) [Compound 190] |
| 84.1% |  |  | 9.08% | 47.4% |  |  |  |  |  | 19.34% | CCNC(=O)[C@@H]1NC(=O)c2sc(N3CCOCC3)cc2[C@H]1c1ccc(Cl)cc1 [Compound 197] |
